Source: patent US9932349B2 (priority 2000, dated 2018)

How the values were obtained:
μ opioid receptor = μ opioid receptor (Cavia porcellus, UniProt A0ACM8Q262); format: binding, guinea pig; settings: read-out: [3H] DAMGO (μ)
mice = test: mouse acetic acid writhing test (antinociceptive activity); format: in vivo

μ opioid receptor, sequence (A0ACM8Q262 1-400): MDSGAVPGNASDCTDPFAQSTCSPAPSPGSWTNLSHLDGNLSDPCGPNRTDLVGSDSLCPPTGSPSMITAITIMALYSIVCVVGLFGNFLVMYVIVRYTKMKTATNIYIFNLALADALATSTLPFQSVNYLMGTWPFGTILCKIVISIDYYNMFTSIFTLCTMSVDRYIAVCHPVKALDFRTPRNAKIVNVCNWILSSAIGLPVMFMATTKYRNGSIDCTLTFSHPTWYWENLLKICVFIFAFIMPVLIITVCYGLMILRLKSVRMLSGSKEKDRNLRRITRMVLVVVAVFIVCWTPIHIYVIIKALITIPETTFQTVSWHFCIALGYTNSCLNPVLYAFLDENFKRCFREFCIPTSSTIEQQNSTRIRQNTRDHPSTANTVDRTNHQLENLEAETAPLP

## Cyclazocine [(±)-Cyclazocine, reference compound]
μ opioid receptor
  Ki: 0.32 ± 0.02 nM
mice; 1.0 mg/kg i.p.
  duration of action (antinociception, mouse writhing test): ca. 2 hr
mice; administered i.c.v.
  ED50 in the mouse acetic acid writhing test: 2.9 nmol
